Patent US20240300945A1, “CLY SERIES COMPOUND, PREPARATION METHOD THEREFOR AND USE THEREOF IN PREPARATION OF DRUGS” (NANJING WELLBEST PHARMACEUTICAL CO., LTD, priority 2021, published 2024)
Marks after values point to notes of the source that are not given here.

Columns and labels:
skin melanocytes = assay: Chloasma model of guinea pig: pathomorphological observation of skin melanocytes; type: in vivo; parameters: Average gray level (melanocyte depth): scale not given here; settings: 0.25% cream once a day, 30 days
Source text: According to the body weight, they were randomly divided into the model control group (applied cream matrix), blank control group (applied cream matrix), CLY-1 treatment group (applied 0.25% CLY-1 cream on the skin), CLY-2 treatment group (0.25% CLY-2 cream on the skin), CLY-3 treatment group (0.25% CLY-3 cream on the skin), CLY-4 treatment group (0.25% CLY-4 cream on the skin), CLY-5 treatment group (0.25% CLY-5 cream on the skin) CLY-8 treatment group (0.25% CLY-8 cream on the skin), CLY-11 treatment group (0.25% CLY-11 cream on the skin), CLY-19 treatment group (0.25% CLY-19 cream on the skin), CLY-36 treatment group (0.25% CLY-36 cream on the skin), CLY-39 treatment group (0.25% CLY-39 cream on the skin), positive treatment group (0.25% arbutin cream on the skin), 6 in each group. In addition to the blank control group, all guinea pigs in the other groups were injected with 20 mg/ml progesterone injection (7.5 mg/kg) into the muscle at the root of the hind leg, once a day, for 30 consecutive days to establish the chloasma model. […] After modeling, the guinea pigs in the model control group, blank control group, each CLY series treatment group, and positive treatment group were treated with corresponding cream on the back for intervention, once a day, for 30 consecutive days.
Took 1 piece of spare skin tissue from each of all guinea pigs, about 2 cm×1 cm, 10% paraformaldehyde fixation, pathological tissue detection, immunohistochemical staining, observation of melanocyte staining and number, and judgment of positive cells according to the literature: none, 0 point<15%, 0.5 points<30%, 1 point; >30%, 2 points. Observed 5 visual fields in each slice, found out the positive target with brown reaction in the cytoplasm of skin epidermis and accessory epithelial cells, and used BX50F4 Beihang pathological image analysis system for quantitative analysis to obtain the average area, the ratio of target area to statistical field area (areal density), the ratio of target number to statistical field area (number density), the average gray level, the average optical density and the integrated optical density of each guinea pig's 5 visual fields of melanin positive target.
SPSS16.0 software was used for statistics. The measurement data were expressed by mean±standard deviation (x±s). The comparison between multiple groups was performed by one-way ANOVA, and the comparison between groups was performed by t-test. P<0.05 was statistically significant.

rabbit ear acne model [1] = assay: Rabbit ear acne model: macroscopic observation and histological grading; type: in vivo, New Zealand rabbits; settings: right ear, 10 per group; for number of rabbits with acne histological grading 2+: Grade 2; for number of rabbits with acne histological grading —: Level 0, without acne; for number of rabbits with acne histological grading 1+: Level 1; for number of rabbits with acne histological grading 3+: Level 3
Source text: (1) Preparation method of treatment cream: The excipient matrix components included methyl silicone oil (15%), stearic acid (6%), white vaseline (5%), liquid paraffin (5%), octadecanol (5%), glycerin (20%), alkyl aryl polyglycol ether (1%), fatty alcohol polyoxyethylene ether (1%), […] (1%), ethyl paraben (0.1%), distilled water (about 31-55%), and mixed with appropriate amount of CLY series compounds to form a mixed emulsion. The emulsion matrix used in this embodiment refers to the matrix component after the active ingredient was removed from the emulsion.
(2) Positive therapeutic drug: 0.1% adapalene gel (Trade name: Differin, produced by Laboratoires Galderma, France).
(§1) New Zealand rabbits were, according to weights, randomly divided into the model control group (applied cream matrix), positive treatment group (applied Differin on the skin), CLY-1 external treatment group (0.25% CLY-1 cream on the skin), CLY-2 external treatment group (0.25% CLY-2 cream on the skin), CLY-3 external treatment group (0.25% CLY-3 cream on the skin), CLY-4 external treatment group (0.25% CLY-4 cream on the skin) CLY-8 external treatment group (0.25% CLY-8 cream on the skin), CLY-9 external treatment group (0.25% CLY-9 cream on the skin), CLY-11 external treatment group (0.25% CLY-11 cream on the skin), CLY-19 external treatment group (0.25% CLY-19 cream on the skin), CLY-36 external treatment group (0.25% CLY-36 cream on the skin); CLY-1 intravenous injection group (1 mg/kg·d), CLY-2 intravenous injection group (1 mg/kg·d), CLY-3 intravenous injection group (1 mg/kg·d), CLY-4 intravenous injection group (1 mg/kg·d), CLY-8 intravenous injection group (1 mg/kg·d), CLY-9 intravenous injection group (1 mg/kg·d), CLY-11 intravenous injection group (1 mg/kg·d), CLY-19 intravenous injection group (1 mg/kg·d), and CLY-36 intravenous injection group (1 mg/kg·d), with 10 in each group. Took the inner side of the rabbit's right ear for depilation treatment as the observation area, and the inner side of the left ear of all rabbits as their own negative control, and applied 95% alcohol. The inner side of the right ear of the model group and the treatment group were both coated with 2% coal tar (Alfa Aesar China, which used 95% alcohol to prepare 2% coal tar solution), and evenly applied the sterile cotton swab to the opening of the ear duct on the inner side of the rabbit's ear within the range of about 2 cm×2 cm, once a day, 0.5 mL each time, and wiped the previous application site with warm water for 14 consecutive days to establish the acne micro-pigmentation model. Visually observed the changes of local skin, including ear thickness, hardness, roughness, and whether there was a black angle plug at the hair follicle mouth. 18 hours after the last application, the sample was sacrificed and skin was taken. The skin tissue was taken from the application site by using a 5 mm punch, fixed with 10% formaldehyde, embedded in paraffin, and stained with HE. The histopathological observation and analysis were carried out.
The histological grading criteria of the acne model: 3 grades according to histological grade. […] The tight keratin embolism in the hair follicles causes severe expansion of the hair follicles, obvious hyperplasia of the sebaceous duct epithelium, skin bulges and scars, and some sebaceous glands degenerate “3±”.
(§2) SPSS16 software was used for statistical analysis. The paired t-test was used for the left and right self-contrast, and the t-test was used for the comparison between the groups, P<0.05 was statistically significant.

rabbit ear acne model [2] = assay: Rabbit ear acne model: epidermal thickness, hair follicle area, sebaceous gland diameter; type: in vivo, New Zealand rabbits; settings: rabbit right ear
Source text: as §1
The histopathological changes were observed under the microscope, and the thickness of five different epidermises on a slice was measured with the Biomias99 image analysis system, and the average value was calculated; Detected the area of the two hair follicles and the diameter of the four sebaceous glands with the same position and the most complete structure in the four sections, calculated their average values, and then subtracted the data of the left and right external auditory canal of the rabbits in each group to obtain the difference in the thickness of the left and right ear epidermis, the difference in the area of the hair follicles and the difference in the diameter of the sebaceous glands.
as §2

[3] = external use (0.25% CLY cream; positive: Differin)
[4] = intravenous injection 1 mg/kg·d

Structure (SMILES)	Area density of melanocytes (skin melanocytes)	Area of melanocytes (skin melanocytes)	Average gray level (melanocyte depth) (skin melanocytes)	Average optical density (melanocyte depth) (skin melanocytes)	Integrated optical density (melanocyte depth) (skin melanocytes)	Number density of melanocytes (skin melanocytes)	Number of melanocytes (skin melanocytes)	number of rabbits with acne histological grading 2+ (rabbit ear acne model [1]; [3])	number of rabbits with acne histological grading 2+ (rabbit ear acne model [1]; [4])	number of rabbits with acne histological grading — (rabbit ear acne model [1]; [3])	number of rabbits with acne histological grading — (rabbit ear acne model [1]; [4])	number of rabbits with acne histological grading 1+ (rabbit ear acne model [1]; [3])	number of rabbits with acne histological grading 1+ (rabbit ear acne model [1]; [4])	number of rabbits with acne histological grading 3+ (rabbit ear acne model [1]; [3])	number of rabbits with acne histological grading 3+ (rabbit ear acne model [1]; [4])	epidermal thickness (rabbit ear acne model [2]; [3])	hair follicle area (rabbit ear acne model [2]; [3])	sebaceous gland diameter (rabbit ear acne model [2]; [3])	epidermal thickness (rabbit ear acne model [2]; [4])	hair follicle area (rabbit ear acne model [2]; [4])	further results
O=C(c1ccc(-n2nnc3cccnc32)cc1)N(c1ncccc1Cl)[C@@H]1CCNC1 [CLY-8, (R)-4-(3H-[1,2,3]triazolo[4,5-b]pyridin-3-yl)-N-(3-chloropyridin-2-yl)-N-(pyrrolidin-3-yl)benzamide]	0.003 ± 0.001	341.26 ± 54.82 um2	0.39 ± 0.04	10.48 ± 1.11	103.15 ± 9.52	1.71 ± 1.26	1.36 ± 0.29	1	0	8	9	1	1	0	0	0.2237 ± 0.0168 mm	0.2115 ± 0.0832* mm^2	0.0663 ± 0.0307 mm	0.1843 ± 0.0156 mm	0.1845 ± 0.0653* mm^2	sebaceous gland diameter (rabbit ear acne model [2]; [4]): 0.0572 ± 0.0289 mm
O=C(c1ccc(-n2nnc3cccnc32)cc1)N(c1ncccc1Cl)C1CCCC(O)C1 (stereo not drawn) [CLY-4]	0.009 ± 0.003	496.56 ± 86.23 um2	0.58 ± 0.09	11.61 ± 1.38	92.45 ± 9.36	2.95 ± 1.41	2.45 ± 0.67	2	2	3	5	5	3	0	0	0.2436 ± 0.0215 mm	0.3254 ± 0.1126* mm^2	0.0958 ± 0.0456 mm	0.2363 ± 0.0235 mm	0.2465 ± 0.0923* mm^2	sebaceous gland diameter (rabbit ear acne model [2]; [4]): 0.0625 ± 0.0386 mm
CCN1CCC[C@@H](N(C(=O)c2ccc(-n3nnc4cccnc43)cc2)c2ncccc2Cl)C1 [CLY-2, (R)-4-(3H-[1,2,3]triazolo[4,5-b]pyridin-3-yl)-N-(3-chloropyridin-2-yl)-N-(1-ethylpiperidin-3-yl)benzamide]	0.004 ± 0.002	366.26 ± 62.15 um2	0.41 ± 0.06	10.68 ± 1.18	106.96 ± 9.84	1.88 ± 1.34	1.75 ± 0.53	2	1	6	8	2	1	0	0	0.2348 ± 0.0169 mm	0.2639 ± 0.0934* mm^2	0.0687 ± 0.0375 mm	0.2265 ± 0.0165 mm	0.2232 ± 0.0859* mm^2	sebaceous gland diameter (rabbit ear acne model [2]; [4]): 0.0496 ± 0.0298 mm
CN1CCC[C@@H](N(C(=O)c2ccc(-n3nnc4cccnc43)cc2)c2ncccc2Cl)C1 [CLY-1, (R)-4-(3H-[1,2,3]triazolo[4,5-b]pyridin-3-yl)-N-(3-chloropyridin-2-yl)-N-(1-methylpiperidin-3-yl)benzamide]	0.005 ± 0.002	372.31 ± 58.32 um2	0.43 ± 0.07	11.23 ± 1.21	103.34 ± 9.71	1.91 ± 0.96	1.93 ± 0.55	2	1	5	7	3	2	0	0	0.2376 ± 0.0182 mm	0.2736 ± 0.0967* mm^2	0.0825 ± 0.0389 mm	0.2287 ± 0.0171 mm	0.2256 ± 0.0863* mm^2	sebaceous gland diameter (rabbit ear acne model [2]; [4]): 0.0536 ± 0.0312 mm
